These results are taken from patent US20050100998A1 (priority 2000, published 2005).

For one experiment, the system named is HL-60 cells. In words: RT-PCR of UMP-CMP kinase expression and phenotype in differentiating HL-60 cells. In kind it is cell-based, human. The conditions noted are these: HL-60 cells treated with differentiating agent. The text has this: The possibility that UMP-CMP kinase was developmentally regulated as monocytes proceed toward the macrophage phenotype was also investigated. To assess this, human monocytes were isolated and cultered for 10 days as they differentiated into macrophages. RNA was isolated on the day of cell plating and then throughout the culture period. […] These cells are monocytic, but differentiate into macrophage-like cells in the presence of phorbol-12-myristate-13-acetate (PMA) (Murao et al., 1983; Rovera et al., 1979), or into neutrophils in the presence of DMSO (Collins et al., 1975). […] These changes included adhesion and altered cell shape. No change in UMP-CMP kinase expression was detected, however, when assayed by RT-PCR. […] Similarly, no change was detected after DMSO treatment.
Because the cDNA had been cloned from a macrophage library, it was also considered possible that UMP-CMP kinase expression might be developmentally regulated as monocytes proceed toward the macrophage phenotype. To evaluate this possibility, Human monocytes were isolated and cultured for 10 days as they differentiated into macrophages. […] In order to confirm this conclusion, HL-60 cells were employed. […] Similarly, no change in this message was detected after DMSO treatment (data not shown).

Experiment [1] has as its target T1, UMP-CMP kinase (Homo sapiens, UniProt P30085).
T1 construct: This cDNA codes for a predicted 196 amino-acid protein; expressed in transfected cells; host or cells: HEK 293 or COS-7 cells transiently transfected with pRc/CMV carrying the UMP-CMP kinase cDNA; crude lysate used
T1 sequence (P30085 1-196): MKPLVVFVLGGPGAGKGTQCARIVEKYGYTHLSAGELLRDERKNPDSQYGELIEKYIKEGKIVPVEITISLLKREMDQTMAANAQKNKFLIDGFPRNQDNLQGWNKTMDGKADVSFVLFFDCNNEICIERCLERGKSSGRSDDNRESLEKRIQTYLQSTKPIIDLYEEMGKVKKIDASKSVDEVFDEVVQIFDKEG
In words: Enzymatic activity assay (NMP phosphorylation, TLC of radiolabelled products). The class given is biochemical. The conditions noted are these: for ability of the NTP to act as phosphate donor (CDP formed), in words: NTP varied; for phosphorylation of the NMP as substrate (phosphate acceptor), in words: lysates of transfected cells vs vector-transfected cells, FIG. 5A.
Experimental: Tests were conducted on the enzyme produced by the cDNA.
Since many NMP kinases phosphorylate multiple types of NMPs with varying relative kinetics, a variety of NMPs were tested as substrates.
The most preferred phosphate donor of the kinase was next investigated. […] The amount of CDP formed indicates the ability of each NTP to act as a phosphate donor.
Cell lysates (25 μg total protein) prepared as described for Western blot were added to the following reaction mixture: 83 mM tris-HCl (pH 8.0), 3.3 mM MgCl2, 0.17 M KCl, 6.7 mM NTP, 6.7 mM NMP and 0.1 μCi of the indicated [^3H]-NU (60.4 mCi/mmol). The reaction was carried out at 37° C. for 6 min and terminated with an equal volume of 2 M formic acid. Unlabeled NDP was added (6.7 mM final concentration) and the reactions were dried under a steam of nitrogen. The products were resuspended in distilled H2O and analyzed by thin layer chromatography.
Chromatography was performed by ascending development (dry start) in closed plexiglass chambers at room temperature using 0.25 M KH2PO4 (pH 3.4) as described previously. […] The products were visualized under UV light and identified by co-migration with authentic nucleotides. Spots corresponding to different nucleotides were scraped from the plate and radioactive reaction products were quantified with a multi-purpose liquid scintillation counter.

Experiment [2] deals with T1, UMP-CMP kinase. The conditions noted are these: Mol. Pharmacol. 56:562-569 (1999), ATP as donor, 30 min; cited from earlier work.
[3] abbreviates: varying Mg^2+ concentrations, FIG. 4.

“Also recorded” adds a separate entry of the source.

Regarding `CCCCCCCCCCCCCC(=O)O[C@@H]1[C@@H](C)[C@@]2(O)[C@@H](C=C(CO)C[C@]3(O)C(=O)C(C)=C[C@@H]23)[C@@H]2C(C)(C)[C@]12OC(C)=O` [PMA, phorbol-12-myristate-13-acetate], in the experiment with HL-60 cells, the “change in UMP-CMP kinase expression by RT-PCR” value is recorded as “No change” and the “phenotypic change of HL-60 cells” value is recorded as “altered the HL-60 cell phenotype from a suspension cell to an adherent cell; also recorded: induced phenotypic changes”. On to `Nc1ncnc2c1ncn2[C@@H]1O[C@H](COP(=O)(O)OP(=O)(O)OP(=O)(O)O)[C@@H](O)[C@H]1O` [ATP], for which the “ability of the NTP to act as phosphate donor (CDP formed), in words” value on UMP-CMP kinase [1] (CMP as substrate, FIG. 5B) is “preferred as phosphate donors over CTP and GTP”. The “phosphorylation of the NMP as substrate (phosphate acceptor), in words” value (from here on “phosphorylation of the NMP as substrate”) at UMP-CMP kinase [1] is recorded as “Modest”. With `O=c1ccn([C@@H]2O[C@H](COP(=O)(O)OP(=O)(O)OP(=O)(O)O)[C@@H](O)[C@H]2O)c(=O)[nH]1` [UTP], the “ability of the NTP to act as phosphate donor (CDP formed), in words” value on UMP-CMP kinase [1] (CMP as substrate, FIG. 5B) is “preferred as phosphate donors over CTP and GTP”.

In the case of `Nc1ccn([C@H]2C[C@H](O)[C@@H](COP(=O)(O)O)O2)c(=O)n1` [dCMP], the “phosphorylation by the kinase as reported by Van Rompay et al.” value (from here on “phosphorylation by the kinase”) at UMP-CMP kinase [2] is reported as “efficiently phosphorylated”.

In the case of `C[S+](C)[O-]` [DMSO], the “change in UMP-CMP kinase expression by RT-PCR” value in the experiment with HL-60 cells is listed as “no change”. `Nc1ccn([C@@H]2O[C@H](COP(=O)(O)O)[C@@H](O)[C@@H]2O)c(=O)n1` [CTP]: the “reaction efficiency as phosphate donor relative to ATP or UTP” value on UMP-CMP kinase [1] (CMP as substrate, FIG. 5B) was “half and approximately half”. Turning to `O=c1ccn([C@@H]2O[C@H](COP(=O)(O)O)[C@@H](O)[C@H]2O)c(=O)[nH]1` [UMP], the “phosphorylation of the NMP as substrate” value on UMP-CMP kinase [1] is listed as “prefers”. At UMP-CMP kinase [2], the “phosphorylation by the kinase” value was “efficiently phosphorylated”. On to `[Mg+2]` [Mg^2+], for which, at UMP-CMP kinase [1] (setting [3]), the “Mg^2+ concentration giving maximal UMP-CMP kinase activity” value is recorded as 3 mM and the “effect of Mg^2+ on UMP-CMP kinase activity, in words” value is on record as “increases UMP-CMP kinase activity in a concentration-dependent manner”. As to `Nc1ncnc2c1ncn2[C@@H]1O[C@H](COP(=O)(O)O)[C@@H](O)[C@H]1O` [AMP], at UMP-CMP kinase [1], the “phosphorylation of the NMP as substrate” value is reported as “only slightly”. Regarding `Nc1nc2c(ncn2[C@@H]2O[C@H](COP(=O)(O)O)[C@@H](O)[C@H]2O)c(=O)[nH]1` [GMP], the “phosphorylation of the NMP as substrate” value at UMP-CMP kinase [1] is “unable to phosphorylate”. Take `Nc1ccn([C@@H]2O[C@H](COP(=O)(O)O)[C@@H](O)[C@H]2O)c(=O)n1` [CMP, Cytidine Monophosphate]: at UMP-CMP kinase [1], the “reaction efficiency in the presence of CMP relative to UMP” value is listed as “three-fold greater reaction efficiency” and the “phosphorylation of the NMP as substrate” value is “prefers”. The “phosphorylation by the kinase” value on UMP-CMP kinase [2] is given as “efficiently phosphorylated”.
